Measurements published in patent publication US6673813B2, “Methods for identifying and treating resistant tumors” (priority 1994, dated 2004).

Columns and labels:
MRP = MRP (Homo sapiens, UniProt P33527); assay: ATP-dependent transport into membrane vesicles of MRP-overexpressing HL60/ADR cells; format: biochemical; parameters: HL60/ADR cells (human leukemia cells grown in adriamycin and overexpressing MRP); endogenous in cells; host or cells: HL60/ADR (Adriamycin-selected human HL60 leukemia cells), plasma membrane vesicles
Chain of MRP (P33527 whole entry): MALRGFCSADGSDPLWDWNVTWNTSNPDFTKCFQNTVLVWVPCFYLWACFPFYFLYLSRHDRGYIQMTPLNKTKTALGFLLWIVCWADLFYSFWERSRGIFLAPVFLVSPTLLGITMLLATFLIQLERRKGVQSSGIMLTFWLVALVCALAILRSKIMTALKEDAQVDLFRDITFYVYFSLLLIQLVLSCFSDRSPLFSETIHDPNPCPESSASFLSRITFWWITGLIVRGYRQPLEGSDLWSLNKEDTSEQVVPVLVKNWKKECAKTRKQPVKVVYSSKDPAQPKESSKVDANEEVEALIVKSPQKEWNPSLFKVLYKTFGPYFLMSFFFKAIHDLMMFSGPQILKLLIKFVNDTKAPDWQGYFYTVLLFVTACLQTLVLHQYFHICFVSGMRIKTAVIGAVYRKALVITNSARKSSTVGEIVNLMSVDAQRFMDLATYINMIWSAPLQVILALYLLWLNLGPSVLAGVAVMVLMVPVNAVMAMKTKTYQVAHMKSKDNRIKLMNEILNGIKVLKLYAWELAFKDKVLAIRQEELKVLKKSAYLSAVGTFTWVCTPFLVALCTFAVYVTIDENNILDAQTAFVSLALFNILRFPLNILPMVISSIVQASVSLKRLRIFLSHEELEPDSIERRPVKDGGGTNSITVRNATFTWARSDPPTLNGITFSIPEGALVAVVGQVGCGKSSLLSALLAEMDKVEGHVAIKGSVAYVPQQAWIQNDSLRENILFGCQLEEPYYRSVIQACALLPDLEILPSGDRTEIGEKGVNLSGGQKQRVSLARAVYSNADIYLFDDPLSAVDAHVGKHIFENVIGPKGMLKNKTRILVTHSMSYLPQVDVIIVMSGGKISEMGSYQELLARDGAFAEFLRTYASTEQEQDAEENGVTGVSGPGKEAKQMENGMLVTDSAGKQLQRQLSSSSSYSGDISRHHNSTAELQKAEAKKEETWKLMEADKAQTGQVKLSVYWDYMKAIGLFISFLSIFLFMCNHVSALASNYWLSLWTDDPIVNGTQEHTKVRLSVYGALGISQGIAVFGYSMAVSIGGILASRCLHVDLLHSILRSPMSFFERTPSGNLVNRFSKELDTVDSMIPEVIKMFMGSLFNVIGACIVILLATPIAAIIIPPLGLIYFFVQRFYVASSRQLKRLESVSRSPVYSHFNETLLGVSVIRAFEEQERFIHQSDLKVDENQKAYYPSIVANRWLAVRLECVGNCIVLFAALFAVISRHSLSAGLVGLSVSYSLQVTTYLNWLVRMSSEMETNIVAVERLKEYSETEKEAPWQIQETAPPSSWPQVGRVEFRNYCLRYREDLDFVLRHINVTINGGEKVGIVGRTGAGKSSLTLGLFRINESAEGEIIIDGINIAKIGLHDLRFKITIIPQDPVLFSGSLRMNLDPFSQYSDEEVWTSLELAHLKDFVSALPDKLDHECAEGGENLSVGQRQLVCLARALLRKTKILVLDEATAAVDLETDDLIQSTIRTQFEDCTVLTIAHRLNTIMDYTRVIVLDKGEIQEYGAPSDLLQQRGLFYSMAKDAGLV
Experimental: HL60/ADR cells (human leukemia cells grown in adriamycin and overexpressing MRP), revertant HL60 cells, and parental HL60 cells, respectively, were harvested by centrifugation after cultivation in cell culture and plasma membrane vesicles were prepared according to standard methods. Briefly, the cells were lysed by incubation in hypotonic buffer (0.5 mM sodium phosphate (pH 7.0), 0.1 mM EDTA supplemented with protease inhibitors) for 1.5 hours, followed by homogenization in a homogenizer. After centrifugation of the homogenate at 12,000×g(4° C., 10 minutes), the supernatant was centrifuged at 100,000×g at 4° C. for 45 minutes. […] After centrifugation at 280,000×g at 4° C. for 2 hours, the interphase was collected, washed by centrifugation in incubation buffer (100,000×g) and passed 20 times through a 27-gauge needle.
Membrane vesicles (50 μg of protein) were incubated in the presence of 4 mM ATP, 10 mM MgCl2, 10 mM of creatine phosphate, and the labeled substrate in an incubation buffer containing 250 mM sucrose and 10 mM Tris-HCl, pH 7.4. The final volume was 110 μl. Aliquots of 20 μl were taken at predetermined times and diluted in 1 ml of ice-cold incubation buffer. The dilute samples were filtered immediately through a nitrocellulose membrane (0.2 μm pore size), presoaked in incubation buffer using a rapid filtration device and rinsed twice with 5 ml incubation buffer. The filters were immersed in liquid and measured in a liquid scintillation counter. ATP was replaced by an equal concentration of 5′-AMP in a control experiment. All rates of the ATP-dependent transport were obtained by subtracting the values obtained in the presence of 5′-AMP from those measured in the presence of ATP.

HL60/ADR cells = assay: Assay for reversal of Adriamycin resistance (cell growth, MTS); format: cell-based, human; settings: test compound in addition to Adriamycin, samples diluted to 20 μM, 25 μl per 100 μl well, 72 hours
Text: HL60/ADR is a continuous cell line, which was selected for Adriamycin™ resistance by culturing HL60, a human acute myeloblastic leukemia cell line, in increasing concentrations of Adriamycin™ until a highly resistant variant was attained. (McGrath, T., et al., Biochem. […] Marquardt, D. and Center, M. S., Cancer Res., 52: 3157, (1992); and Marquardt, D., et al., Cancer Res., 50: 1426, (1990)). […] Cells were harvested; washed twice with assay medium (same as culture media); counted; and diluted to 2×10^5 cells/ml in assay medium. Fifty μl of cells were aliquoted into wells of a 96 well tissue culture plate. One column of each 96 well plate served as a negative control and received assay medium containing no cells. Test compounds and references compounds were dissolved in dimethyl sulfoxide (DMSO) at a concentration of 5 mM. […] Assay standards were run in quadruplicate. 25 μl of 0.4% DMSO was added to four wells as a solvent control. […] The plates were incubated at 37° Centigrade for 72 hours in a humidified incubator with a 5% CO2 atmosphere. A CellTiter96 Aqueous Assay Kit (Promega) was used to measure cell viability and vitality via […] of a tetrazolium salt. The assay was performed in accordance with the vendors instructions, which required 2 ml of MTS reagent being mixed with 0.1 ml of PMS reagent and 20 μl of this solution was added to each well. The plates were incubated for 3 hours at 37° C. Absorbance was determined at 490 nm using a microtitre plate reader. The ability of a test compound to reverse the resistance of HL60/ADR cells to Adriamycin was determined by comparison of the absorbance of the wells containing a test compound in addition to Adriamycin with the absorbance of wells containing Adriamycin without a test compound. Controls were used to eliminate background and to ensure the results were not artifactual. The results of the assay are expressed as percent inhibition of cell growth.

| melting point | Compound | % Inhibition (percent inhibition of cell growth) (HL60/ADR cells) | other results |
| --- | --- | --- | --- |
| 62 to 64 °C | CCCCc1c(OCCCOc2cc(O)c(-c3ccc(F)cc3)cc2CC)cccc1Oc1ccccc1C(=O)O (hydrate or solvate) [Example 11, 2-[2-Butyl-3-[3-[2-ethyl-5-hydroxy-4-(4-fluorophenyl)phenoxy]propoxy]phenoxy]benzoic acid hydrate] | – | – |
| 80 to 90 °C | CCCc1c(OCCCOc2cc(O)c(-c3ccc(F)cc3)cc2CC)cccc1S(=O)(=O)c1ccccc1C(=O)O (hydrate or solvate) [Example 17, 2-[2-Propyl-3-[3-[2-ethyl-4-(4-fluorophenyl)-5-hydroxyphenoxy]propoxy]phenylsulfonyl]benzoic acid hydrate] | – | – |
| – | CCCCC/C=C\C\C=C/C=C/C=C/[C@@H](Sc1ccc(C(=O)O)cc1)[C@@H](O)CCCC(=O)O [BAY u9773] | – | type of inhibition of ATP-dependent LTC4 transport (MRP; double-reciprocal (Lineweaver and Burk) plot): competitive inhibition; Ki (MRP; inhibition of ATP-dependent transport of LTC4, vesicles of MRP-overexpressing cells, 37° C., 2 minutes, read-out: inhibition constant (Ki)): 700 nM |
| – | CCCc1c(OCCCOc2cc(O)c(-c3ccc(F)cc3)cc2CC)ccc2c1OC(C(=O)O)CC2 (centres unmarked) [Example 1, 8-Propyl-7-[3-[4-(4-fluorophenyl)-2-ethyl-5-hydroxyphenoxy]propoxy]-3,4-dihydro-2H-1-benzopyran-2-carboxylic acid] | 54% | – |
| – | CCCc1c(OCCCOc2cc(O)c(-c3ccccc3)cc2CC)cccc1Oc1ccccc1C(=O)[O-].[Na+] [Example 2, 2-[2-Propyl-3-[3-(2-ethyl-5-hydroxy-4-phenylphenoxy)-propoxy]phenoxy]benzoic acid sodium salt hemihydrate] | 63% | – |
| – | CCCc1c(OCCCOc2cc([O-])c(-c3ccccc3)cc2CC)cccc1Oc1ccccc1-c1nnn[n-]1.[Na+].[Na+] [Example 3, 5-Ethyl-4-[3-[2-propyl-3-[2-(2H-tetrazol-5-yl)phenoxy]phenoxy]propoxy][1,1′-biphenyl]-2-ol disodium salt sesquihydrate] | 55% | – |
| – | CCCc1c(OCCCOc2cc([O-])c(-c3ccccc3)cc2CC)cccc1Oc1cccc(F)c1C(=O)[O-].[Na+].[Na+] [Example 4, 2-Fluoro-6-[2-propyl-3-[3-(2-ethyl-5-hydroxy-4-phenylphenoxy)propoxy]phenoxy]benzoic acid disodium salt] | 38% | – |
| – | CCCc1c(OCCCOc2cc(O)c(-c3ccc(F)cc3)cc2CC)cccc1Oc1ccccc1C(=O)[O-].[Na+] [Example 5, 2-[2-Propyl-3-[3-[2-ethyl-4-(4-fluorophenyl)-5-hydroxyphenoxy]propoxy]phenoxy]benzoic acid sodium salt] | 23% | – |
| – | CCCc1c(OCCCOc2cc(O)c(-c3ccc(F)cc3)cc2CC)cccc1Oc1cccc(F)c1C(=O)[O-].[Na+] [Example 6, 2-Fluoro-6-[2-propyl-3-[3-[2-ethyl-5-hydroxy-4-(4-fluorophenyl)phenoxy]propoxy]phenoxy]benzoic acid disodium salt hydrate] | 35% | – |
| 62 to 64 °C | CCCc1c(OCCCOc2cc(O)c(-c3ccc(F)cc3)cc2CC)cccc1Oc1cc(F)ccc1C(=O)O [Example 7, 4-Fluoro-2-[2-propyl-3-[3-[2-ethyl-5-hydroxy-4-(4-fluorophenyl)phenoxy]propoxy]phenoxy]benzoic acid] | 72% | – |
| – | CCCc1c(OCCCCOc2cc(O)c(-c3ccc(F)cc3)cc2CC)cccc1Oc1ccccc1C(=O)O [Example 9, 2-[2-Propyl-3-[4-[2-ethyl-5-hydroxy-4-(4-fluorophenyl)-phenoxy]butoxy]phenoxy]benzoic acid sesquihydrate] | 61% | – |
| 48 to 49 °C | CCc1cc(-c2ccc(F)cc2)c(O)cc1OCCCOc1cccc(Oc2ccccc2C(=O)O)c1CC(C)C [Example 10, 2-[2-(2-Methylpropyl)-3-[3-[2-ethyl-5-hydroxy-4-(4-fluorophenyl)phenoxy]propoxy]phenoxy]benzoic acid] | 49% | – |
| – | CCCCc1c(OCCCOc2cc(O)c(-c3ccc(F)cc3)cc2CC)cccc1Oc1ccccc1C(=O)O [Example 11, 2-[2-Butyl-3-[3-[2-ethyl-5-hydroxy-4-(4-fluorophenyl)phenoxy]propoxy]phenoxy]benzoic acid hydrate] | 47% | – |
| – | CCc1cc(-c2ccc(F)cc2)c(O)cc1OCCCOc1cccc(Oc2ccccc2C(=O)O)c1Cc1ccccc1 [Example 12, 2-[2-(Phenylmethyl)-3-[3-[2-ethyl-5-hydroxy-4-(4-fluorophenyl)phenoxy]propoxy]phenoxy]benzoic acid] | 62% | – |
| – | CCCc1c(OCCCOc2cc(O)c(-c3ccc(F)cc3)cc2CC)cccc1C(=O)c1ccccc1C(=O)O [Example 13, 2-[2-Propyl-3-[3-[2-ethyl-5-hydroxy-4-(4-fluorophenyl)phenoxy]propoxy]benzoyl]benzoic acid] | 64% | – |
| 150 to 151 °C | CCCc1c(Cc2ccccc2C(=O)O)cccc1OCCCOc1cc(O)c(-c2ccc(F)cc2)cc1CC [Example 14, 2-[[2-Propyl-3-[3-[2-ethyl-5-hydroxy-4-(4-fluorophenyl)phenoxy]propoxy]phenyl]methyl]benzoic acid] | 58% | – |
| 153 to 155 °C | CCCc1c(OCCCOc2cc(O)c(-c3ccc(F)cc3)cc2CC)cccc1Sc1ccccc1C(=O)O [Example 15, 2-[2-Propyl-3-[3-[2-ethyl-4-(4-fluorophenyl)-5-hydroxyphenoxy]propoxy]thiophenoxy]benzoic acid] | 73% | – |
| > 100 °C (dec.) | CCCc1c(OCCCOc2cc(O)c(-c3ccc(F)cc3)cc2CC)cccc1[S+]([O-])c1ccccc1C(=O)O (centres unmarked) [Example 16, 2-[2-Propyl-3-[3-[2-ethyl-4-(4-fluorophenyl)-5-hydroxyphenoxy]propoxy]phenylsulfinyl]benzoic acid] | 35% | – |
| – | CCCc1c(OCCCOc2cc(O)c(-c3ccc(F)cc3)cc2CC)cccc1S(=O)(=O)c1ccccc1C(=O)O [Example 17, 2-[2-Propyl-3-[3-[2-ethyl-4-(4-fluorophenyl)-5-hydroxyphenoxy]propoxy]phenylsulfonyl]benzoic acid hydrate] | 25% | – |
| – | CCCc1c(OCCCOc2ccc(C(C)=O)c(OC)c2CCC)ccc2c1OC(C(=O)O)CC2 (centres unmarked) [Example 18, 8-Propyl-7-[3-[4-acetyl-3-methoxy-2-propylphenoxy]propoxy]-3,4-dihydro-2H-1-benzopyran-2-carboxylic acid] | 67% | – |

| Compound | melting point | % Inhibition (percent inhibition of cell growth) (HL60/ADR cells) | other results |
| --- | --- | --- | --- |
| CCCc1c(OCCCCOc2cc(O)c(-c3ccc(F)cc3)cc2CC)cccc1Oc1ccccc1C(=O)O (hydrate or solvate) [Example 9, 2-[2-Propyl-3-[4-[2-ethyl-5-hydroxy-4-(4-fluorophenyl)-phenoxy]butoxy]phenoxy]benzoic acid sesquihydrate] | 65 to 68 °C | – | – |
| CCCc1c(OCCCCCOc2cc(O)c(-c3ccc(F)cc3)cc2CC)cccc1Oc1ccccc1C(=O)O [Example 8, 2-[2-Propyl-3-[5-[2-ethyl-5-hydroxy-4-(4-fluorophenyl)phenoxy]pentoxy]phenoxy]benzoic acid] | 65 °C (dec.) | 57% | – |
